Results taken from ChEMBL document CHEMBL1201862, “PubChem BioAssay data set” (2004).
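Briefly, cells in 96-well plates were exposed to five compound concentrations for 48 h, and endpoints were estimated by linear interpolation. Here, GI50 denotes the concentration required for 50% inhibition of growth.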 The source made the active and inactive calls. Rule as the data show it: active = GI50 up to about 1.1 µM and inactive = higher.

Key:
Assay in all cases: growth of human tumour cells (NCI), 48 h
[1] = system: KM12
[2] = system: CCRF-CEM
[3] = system: HOP-92
[4] = system: HCC 2998
[5] = system: UO-31
[6] = system: SK-MEL-2
[7] = system: T47D
[8] = system: HOP-62
[9] = system: SF-268
[10] = system: A498
[11] = system: SK-OV-3
[12] = system: HCT-116
[13] = system: OVCAR-3
[14] = system: K562
[15] = system: PC-3
[16] = system: SNB-19
[17] = system: RXF 393
[18] = system: OVCAR-5
[19] = system: SF-295
[20] = system: MOLT-4
[21] = system: SNB-75
[22] = system: RPMI-8226
[23] = system: Hs-578T
[24] = system: M14
[25] = system: UACC-62
[26] = system: A549
[27] = system: OVCAR-4
[28] = system: MDA-N
[29] = system: IGROV-1
[30] = system: SN12C
[31] = system: BT-549
[32] = system: UACC-257
[33] = system: HL-60
[34] = system: TK-10
[35] = system: SK-MEL-5
[36] = system: HCT-15
[37] = system: NCI-H23
[38] = system: MDA-MB-435
[39] = system: SK-MEL-28
[40] = system: EKVX
[41] = system: LOX IMVI
[42] = system: MDA-MB-231
[43] = system: OVCAR-8
[44] = system: U-251
[45] = system: SF-539
[46] = system: ACHN
[47] = system: SW-620
[48] = system: COLO 205
[49] = system: DU-145
[50] = system: NCI-H522
[51] = system: NCI/ADR-RES
[52] = system: SR
[53] = system: Malme-3M
[54] = system: HT-29
[55] = system: 786-0
[56] = system: NCI-H460
[57] = system: MCF7
[58] = system: NCI-H226

## O=C(Cc1ccccc1)NCCc1ccc(O)c(O)c1
[1]
  GI50: > 100 µM (inactive)
[2]
  GI50: 5.14 µM (inactive)
[3]
  GI50: > 100 µM (inactive)
[4]
  GI50: > 100 µM (inactive)
[5]
  GI50: 41.2 µM (inactive)
[6]
  GI50: 24.8 µM (inactive)
[7]
  GI50: > 100 µM (inactive)
[8]
  GI50: > 100 µM (inactive)
[9]
  GI50: 63.1 µM (inactive)
[10]
  GI50: > 100 µM (inactive)
[11]
  GI50: > 100 µM (inactive)
[12]
  GI50: > 100 µM (inactive)
[13]
  GI50: 35 µM (inactive)
[14]
  GI50: 17.9 µM (inactive)
[15]
  GI50: > 100 µM (inactive)
[16]
  GI50: > 100 µM (inactive)
[17]
  GI50: > 100 µM (inactive)
[18]
  GI50: > 100 µM (inactive)
[19]
  GI50: > 100 µM (inactive)
[20]
  GI50: 16.6 µM (inactive)
[21]
  GI50: > 100 µM (inactive)
[22]
  GI50: 15.6 µM (inactive)
[23]
  GI50: > 100 µM (inactive)
[24]
  GI50: > 100 µM (inactive)
[25]
  GI50: 48.9 µM (inactive)
[26]
  GI50: > 100 µM (inactive)
[27]
  GI50: 13 µM (inactive)
[28]
  GI50: 17.4 µM (inactive)
[29]
  GI50: 77.1 µM (inactive)
[30]
  GI50: 95.9 µM (inactive)
[31]
  GI50: 82.8 µM (inactive)
[32]
  GI50: > 100 µM (inactive)
[33]
  GI50: 13.8 µM (inactive)
[34]
  GI50: > 100 µM (inactive)
[35]
  GI50: > 100 µM (inactive)
[36]
  GI50: 54.1 µM
[37]
  GI50: 52.6 µM (inactive)
[38]
  GI50: 17.9 µM (inactive)
[39]
  GI50: > 100 µM (inactive)
[40]
  GI50: > 100 µM (inactive)
[41]
  GI50: 44.7 µM (inactive)
[42]
  GI50: 37.2 µM (inactive)
[43]
  GI50: > 100 µM (inactive)
[44]
  GI50: 78.7 µM (inactive)
[45]
  GI50: > 100 µM (inactive)
[46]
  GI50: 64.4 µM (inactive)
[47]
  GI50: > 100 µM (inactive)
[48]
  GI50: > 100 µM (inactive)
[49]
  GI50: > 100 µM (inactive)
[50]
  GI50: 28.4 µM (inactive)
[51]
  GI50: > 100 µM (inactive)
[52]
  GI50: 23.3 µM (inactive)
[53]
  GI50: > 100 µM (inactive)
[54]
  GI50: > 100 µM (inactive)
[55]
  GI50: 93.3 µM (inactive)
[56]
  GI50: > 100 µM (inactive)
[57]
  GI50: > 100 µM (inactive)
[58]
  GI50: > 100 µM (inactive)
